Laboratory results: patent US7498406B2, “Substantially cell membrane impermeable compound and use thereof” (priority 1999, dated 2009)
Read-outs that look alike come from different tables or passages of the source.

How the values were obtained:
PBMC = test: Cell number and cell viability in the PBMC HIV assay; settings: 10 μM
Protocol: PBMC's (1×10^6 per mL) were incubated with GSAA or GSAO (10 μM) for 30 minutes at 37° C. and then with primary HIV isolates (HN11, HN68 or HN70 at 50 TCID50 per 10^6 cells) for 2 hours at 37° C. Cells were washed and incubated in complete medium containing GSAA or GSAO (10 μM) at 5% CO2 and 37° C. for up to 7 days. At the indicated times the conditioned medium was collected and assayed for p24 antigen and cell number and cell viability was determined.
The primary HIV isolates, HN11, HN68 and HN70, were provided by Dr. Hassan Naif, Centre for Virus Research, Westmead Millennium Institute, NSW, Australia. […] The blood was diluted 1:2 with PBS, layered onto Ficoll-Hypaque (35 mL blood onto 15 mL Ficoll-Hypaque) in 50 mL Falcon tubes and centrifuged at 400 g for 20 minutes at 20° C. The PBMC's were collected and pelleted at 1200 rpm for 10 minutes to remove platelets, resuspended at 2×10^6 cells per mL in RPMI containing 20% horse serum (Gibco BRL, Gaithersburg, Md.), 10 μg per mL phytohemagglutinin-M (PHA-M, Boehringer Mannheim Biochemica, Mannheim, Germany) and […] interleukin-2 (Sigma, St. Louis, Mo.) and incubated for 2 days at 5% CO2 and 37° C., PBMC (1×10^6 per mL) were incubated with GSAO or GSAA (10 μM) for 30 minutes at 37° C. in serum-free media. Virus was added at 50 TCID50 per 10^6 cells for 2 hours at 37° C.. […]

[1] = Binding of GSAO to dithiol, loss of thiols in DTNB assay; settings: for Kd: errors are 1 SD, read-out: Dissociation Constant
Protocol: FIG. 12. Interaction of GSAO with synthetic, peptide and protein dithiols. DMP (A) (15 μM), 6,8-thioctic acid (B) ([…]), dithiothreitol (C) (8.5 μM), TrpCysGlyProCysLys (D) (4.6 μM), TrpCysGlyHisCysLys (E) (5.5 μM) or thioredoxin (F) (4.1 μM corresponding to 20.6 μM thiols) was incubated with GSAO (0-56 μM) for 10 minutes. DTNB (950 μM) was then added and the reactions incubated for a further 10 minutes. The concentration of thiol in the reactions was determined from the absorbance of the TNB dianion at 412 nm. The solid lines represent the best non-linear least squares fit of the data to Equation 1 (A to E) or Equation 2 (F) and have been drawn using the parameter estimates in Table 1. The dotted line in part A represents a simulated titration assuming an infinite affinity of GSAO for the dithiol. GSAO bound to both synthetic, peptide and protein dithiols with dissociation constants in the range 130 nM to 1.4 μM.
A stock solution of DMP (5 μL, 50 μmol) was dissolved in DMSO (995 μL), giving a concentration of 50 mM DMP, A second dilution of the 50 mM DMP stock solution (10 μL) in pH 7.0 buffer (0.1 M HEPES, 0.3 M NaCl, 1 mM EDTA) (990 μL) gave a working solution of 500 ? M DMP. The activity of the arsenical could then be determined by the titration of varying amounts of arsenical against the DMP working solution (10 μL) in a 96-well microtitre plate, with the total volume made up to 195 μL by addition of buffer. After a 10 minute incubation at room temperature, during which time the solutions were agitated on a plate shaker, 5 μL of a 37.9 mM stock solution of DTNB (15 mg) in DMSO (1 mL) was added, and the plate incubated with shaking for another 10 minutes. The absorbance at 412 nm due to the formation of the TNB dianion was measured using a Molecular Devices Thermomax Plus (Palo Alto, Calif.) microplate reader. The extinction coefficient for the TNB dianion at pH 7.0 is 14, 150 M^−1cm^−1 at 412 nm (Riddles et al., 1983).
Binding of GSAO to dithiols was measured from loss of thiols using the DTNB assay described above. The dissociation constant, Kd, for GSAO binding to dithiols was determined by incubating increasing concentrations of GSAO, I, with a fixed dithiol concentration, [S]T, and measuring the remaining dithiol using DTNB. Note that the concentration of dithiol equals half the TNB concentration. The concentration of dithiol.GSAO complex, SI, as a function of the total GSAO concentration, [I]T, is described by Equation 1 (Hogg and Jackson, 1990), [SI]=0.5.{([S]T+x.[I]T+Kd)−(([S]T+x.[I]T+Kd)^2−4.[S]T.x.[I]T)^0.5} (1)
where x is a factor that, when multiplied together with [I]T, will yield the active concentration of GSAO. […]

SMILES: NC(CCC(=O)NC(CSCC(=O)Nc1ccc([As]=O)cc1)C(=O)NCC(=O)O)C(=O)O (stereo not drawn) [GSAO, 4-(N-(S-glutathionylacetyl)amino)-phenylarsenoxide]
- proliferation of PBMC's (PBMC): inhibited proliferation
- viability of PBMC's (PBMC; 7 days): no effect of cell viability
- interaction with DMP in DTNB titration ([1]; DMP 15 μM, GSAO 0-50 μM, 10 minutes): bound to DMP and prevented interaction of the dithiol with DTNB
- Kd ([1]; ring size 5): 130 nM
- Kd ([1]; ring size 6): 200 ± 50 nM
- Kd ([1]; ring size 7): 420 nM
